Values quoted from earlier work as cited in patent publication US20240352228A1, “NOVEL FLAME RETARDANT” (Chemische Fabrik Budenheim KG, priority 2021, published 2024).

Settings: general statement in description, no method given

For Nc1nc(N)nc(N)n1 [melamine, Melamine], which decomposition temperature is on record?
Its decomposition temperature is greater than 350 °C.
